Test results: EP3991725B1, “NOVEL ENTERO-ANTISEPTIC FOR THE TREATMENT OF GASTROINTENSTINAL INFECTIONS IN HUMANS” (Ninkov, Dusan, priority 2020, dated 2022)

Legend:
[1] = tested on: Yersinia; assay type: cell-based; conditions: (Müller)Hinton-Agar; amount used: The novel compound 0.05 mL; Cephalosporin 0.1 mL; Ampicillin 0.2 mL
[2] = tested on: Streptococcus pneumonia; test: Comparative in vitro examination of selected pathogens, zone diameter; assay type: cell-based; conditions: (Müller)Hinton-Agar; amount used: The novel compound 0.05 mL; Cephalosporin 0.1 mL; Ampicillin 0.2 mL
[3] = tested on: Salmonella typhimurium DT104; test: as above; assay type: cell-based; conditions: (Müller)Hinton-Agar; amount used: The novel compound 0.05 mL; Cephalosporin 0.1 mL; Ampicillin 0.2 mL
[4] = tested on: Listeria monocytogenes; test: as above; assay type: cell-based; conditions: (Müller)Hinton-Agar; amount used: The novel compound 0.05 mL; Cephalosporin 0.1 mL; Ampicillin 0.2 mL
[5] = tested on: Campylobacter; test: as above; assay type: cell-based; conditions: (Müller)Hinton-Agar; amount used: The novel compound 0.05 mL; Cephalosporin 0.1 mL; Ampicillin 0.2 mL
[6] = tested on: rats; test: Acute toxicity LD50, oral (p.o.), rats; conditions: oral dose 2,500 mg/kg
[7] = tested on: mice; test: Acute toxicity LD50, oral (p.o.), mice; conditions: oral dose 2,000 mg/kg
[8] = tested on: humans; test: Clinical pilot study for side effects of the compound tablets; assay type: in vivo; conditions: 60 humans; 250 mg / 30 kg of the body weight every 12 hours for seven (7) days
Description: The reason for this testing was to check if the compound tablets, after a longer period of use, can cause any eventual side effects.
The test results were generated and monitored to obtain the relevant information and facts. In this study, the general monitored parameters were pulse, breathing, ECG (Electrocardiography), any discomfort, adverse events and/or allergy monitoring. These parameters were measured before the treatment with the compound and 15 minutes after its intake. The compound was ingested on the therapeutic days in each patient at 8.00 AM and 8.00 PM CET (paragraph [0026] and paragraph [0027]). After The compound had been consumed, the physician made observations for 30 min. Feeling of the patients during and after the intake of the compound will also be recorded for each participant.
As part of the biochemical analysis of patients' blood, the blood sample of each patient was checked for biochemical parameters. Blood samples were taken from each patient before the beginning of the test, on the 4th day from the tests beginning, and on the 8th day form the tests beginning. The last blood samples have to be checked 12 hours from the last intake of the compound. The biochemical parameters that were measured in blood samples include: • 1. Liver status • 2. C Reactive protein • 3. Kidney Status
The dose was: 250 mg of the compound / 30 kg of the body weight every 12 hours for seven (7) days (paragraph [0026] and paragraph [0027]).
The clinical study started on November 5th, 2019, and was completed on November 29th, 2019.

[9] = tested on: Shigella; test: Comparative in vitro examination of selected pathogens, zone diameter; assay type: cell-based; conditions: (Müller)Hinton-Agar; amount used: The novel compound 0.05 mL; Cephalosporin 0.1 mL; Ampicillin 0.2 mL
[10] = tested on: Vibrio; test: as above; assay type: cell-based; conditions: (Müller)Hinton-Agar; amount used: The novel compound 0.05 mL; Cephalosporin 0.1 mL; Ampicillin 0.2 mL
[11] = tested on: rats; test: Acute toxicity LD50, parenteral - intraperitoneal (i.p.), rats; conditions: i.p. dose 2,500 mg/kg
[12] = tested on: bacteria; test: In vitro studies of bactericide effect; assay type: cell-based; conditions: compared with Thymol and Carvacrol
Text: Their physiological activity is well known. […] The phenol groups of both Thymol and Carvacrol are very aggressive to pathogens: bacteria, fungi etc. These groups are needed for bioactivity of our product. What has been done was making the phenol group less reactive by reacting them with carboxylic and amino group of glycine. The product should be administered p.o. (per os). The novelty idea was to hydrolyze a part of the new molecule in the stomach by hydrochloric acid. Carvacrol and an ester of Glycine and Thymol will be slowly hydrolyzed into Thymol and Glycine. […] The subject of this invention is to produce a potent entero-antiseptic for the treatment gastrointestinal infections in humans.

[13] = tested on: Listeria; test: Comparative in vitro examination of selected pathogens, zone diameter; assay type: cell-based; conditions: (Müller)Hinton-Agar; amount used: The novel compound 0.05 mL; Cephalosporin 0.1 mL; Ampicillin 0.2 mL
[14] = tested on: Escherichia coli 0157H5; test: as above; assay type: cell-based; conditions: (Müller)Hinton-Agar; amount used: The novel compound 0.05 mL; Cephalosporin 0.1 mL; Ampicillin 0.2 mL
[15] = tested on: E. coli; test: as above; assay type: cell-based; conditions: (Müller)Hinton-Agar; amount used: The novel compound 0.05 mL; Cephalosporin 0.1 mL; Ampicillin 0.2 mL
[16] = tested on: mammalian cells, mitotic division; test: Pilot test of effect on mitotic cell division; assay type: cell-based; conditions: the compound in tablet form
Text: In the pilot test at the same Institute, the effect of the compound on the mammalian cells, mitotic division has also been tested. It has been investigated if the compound in tablet form will have any negative - suppressive effect on the mitotic cells division. […] It is a positive sign that the compound in tablet form might be used for on pregnant mammals, without danger of the teratogenic effect on the fetus in the wombs, by the pregnant mammals.

[17] = tested on: mice; test: Acute toxicity LD50, parenteral - intraperitoneal (i.p.), mice; conditions: mouse, in vivo
[18] = tested on: Streptococcus uberis; test: Comparative in vitro examination of selected pathogens, zone diameter; assay type: cell-based; conditions: (Müller)Hinton-Agar; amount used: The novel compound 0.05 mL; Cephalosporin 0.1 mL; Ampicillin 0.2 mL
[19] = tested on: Salmonella strain which requires histidine; test: Ames test (mutagenic and carcinogenic effect); assay type: cell-based
Text: (The subject of the testing was to determine the mutagenic and carcinogenic effect of the compound in tablet form). The test has been done by the Ames test. This test which is a widely and often used method that use pathogens in most cases bacteria's in order to test whether a given chemical, compound and/or medicine can cause any damage to the DNA of the test organism. This method is fast to conduct and easy to follow to check mutagenic or carcinogenic effect of the tested compound. In the lab dish with a the specially selected Salmonella strain which requires histidine, was added to a rat liver extract. The test has been done using the control-experimental method. In the dish volume of the 20 mL of liquid considered to be a control one, had no the compound in it. Into the dish we consider to be experimental one with also a volume of 20 mL, we added 2 mL of the compound, partly diluted into a glucose injectable solution. The mutagenic test results were negative in both lab dishes - control and experimental plates. The results were identical with no signs of the mutations.

[20] = tested on: Staphylococcus aureus; test: Comparative in vitro examination of selected pathogens, zone diameter; assay type: cell-based; conditions: (Müller)Hinton-Agar; amount used: The novel compound 0.05 mL; Cephalosporin 0.1 mL; Ampicillin 0.2 mL
[21] = tested on: Salmonella; test: as above; assay type: cell-based; conditions: (Müller)Hinton-Agar; amount used: The novel compound 0.05 mL; Cephalosporin 0.1 mL; Ampicillin 0.2 mL
[22] = tested on: Streptococcus pyogenes; test: as above; assay type: cell-based; conditions: (Müller)Hinton-Agar; amount used: The novel compound 0.05 mL; Cephalosporin 0.1 mL; Ampicillin 0.2 mL
[23] = tested on: rats; conditions: oral (p.o.), Carvacrol 99,5% concentration, reference value; cited from earlier work
[24] = phenol group of Carvacrol; cited from earlier work

2-(2-isopropyl-5-methylphenoxy)-2-oxoethan-1-aminium 2-isopropyl-5-methylphenolate [The novel compound]
R (evaluation of the results by zone diameter) [1]: E S
zone diameter [1]: 30 mm
R (evaluation of the results by zone diameter) [2]: E S
zone diameter [2]: 36 mm
R (evaluation of the results by zone diameter) [3]: E S
zone diameter [3]: 30 mm
R (evaluation of the results by zone diameter) [4]: E S
zone diameter [4]: 38 mm
R (evaluation of the results by zone diameter) [5]: E S
zone diameter [5]: 35 mm
rats out of a hundred (100) that changed their behavior and demonstrated light discomfort [6]: 37
mice out of a hundred (100) that changed their behavior and demonstrated light discomfort [7]: 21
C Reactive Protein (CRP) measurements [8]: no inflammation was developed
Electrocardiography measurements [8]: regular without any pathological and irregular oscillations
kidney functions (urine and blood parameters) [8]: No irregular parameters were reported
liver function biochemical analysis from blood samples [8]: No irregular parameters were reported
pulse frequency and blood pressure [8]: not significantly altered
respiratory function [8]: not disturbed
symptoms of allergy [8]: no symptoms of allergy
tolerance to the compound upon the prescribed dosage [8]: showed tolerance
R (evaluation of the results by zone diameter) [9]: E S
zone diameter [9]: 31 mm
R (evaluation of the results by zone diameter) [10]: E S
zone diameter [10]: 33 mm
rats out of a hundred (100) that changed their behavior and demonstrated discomfort [11]: 35
bactericide effect [12]: more effective and faster bactericide effect than existing Thymol and Carvacrol
R (evaluation of the results by zone diameter) [13]: E S
zone diameter [13]: 32 mm
R (evaluation of the results by zone diameter) [14]: E S
zone diameter [14]: 29 mm
R (evaluation of the results by zone diameter) [15]: E S
zone diameter [15]: 32 mm
negative - suppressive effect on the mitotic cells division [16]: no negative effects
mice out of a hundred (100) that changed their behavior and demonstrated discomfort [17]: 27
time after which discomfort symptoms disappeared [17]: 3 to 5 min
R (evaluation of the results by zone diameter) [18]: E S
zone diameter [18]: 37 mm
mutagenic test results ([19]; Ames test, rat liver extract, 2 mL of the compound, partly diluted into a glucose injectable solution, in 20 mL dish, preliminary result): negative
carcinogenic effect ([19]; suggested from the negative Ames test result, the compound in tablet form): no carcinogenic effect
R (evaluation of the results by zone diameter) [20]: E S
zone diameter [20]: 32 mm
R (evaluation of the results by zone diameter) [21]: E S
zone diameter [21]: 34 mm
R (evaluation of the results by zone diameter) [22]: E S
zone diameter [22]: 34 mm

CC1(C)S[C@@H]2[C@H](NC(=O)[C@H](N)c3ccccc3)C(=O)N2[C@H]1C(=O)O [Ampicillin]
R (evaluation of the results by zone diameter) [1]: R (0mm - 4mm: resistant: R)
zone diameter [1]: 1 mm
R (evaluation of the results by zone diameter) [2]: R (0mm - 4mm: resistant: R)
zone diameter [2]: 0 mm
R (evaluation of the results by zone diameter) [3]: M S
zone diameter [3]: 6 mm
R (evaluation of the results by zone diameter) [4]: M S
zone diameter [4]: 5 mm
R (evaluation of the results by zone diameter) [5]: R (0mm - 4mm: resistant: R)
zone diameter [5]: 0 mm
R (evaluation of the results by zone diameter) [9]: M S
zone diameter [9]: 6 mm
R (evaluation of the results by zone diameter) [10]: R (0mm - 4mm: resistant: R)
zone diameter [10]: 4 mm
R (evaluation of the results by zone diameter) [13]: R (0mm - 4mm: resistant: R)
zone diameter [13]: 2 mm
R (evaluation of the results by zone diameter) [14]: M S
zone diameter [14]: 7 mm
R (evaluation of the results by zone diameter) [15]: R (0mm - 4mm: resistant: R)
zone diameter [15]: 2 mm
R (evaluation of the results by zone diameter) [18]: R (0mm - 4mm: resistant: R)
zone diameter [18]: 0 mm
R (evaluation of the results by zone diameter) [20]: R (0mm - 4mm: resistant: R)
zone diameter [20]: 0 mm
R (evaluation of the results by zone diameter) [21]: M S
zone diameter [21]: 8 mm
R (evaluation of the results by zone diameter) [22]: R (0mm - 4mm: resistant: R)
zone diameter [22]: 3 mm

Cc1ccc(C(C)C)cc1O [Carvacrol]
LD50 [23]: 810 mg/kg
pKa [24]: 10.4
